Laboratory results: patent US12691114B2, “Compositions for inhibition of herpesviruses” (The Medical College of Wisconsin, Inc., priority 2020, dated 2026)

What was measured:
in vitro = conditions: human
Method: Cytotoxicity assay: MTT assay was performed as described by manufacturer's instructions (Sigma-Aldrich). Non-infected cells were treated with compounds for 72 h or 10 days (same time points of the antiviral assay), and 20 μL/well of MTT [3-(4, 5-Dimethyl-2-thiazolyl)-2, 5-diphenyl-2H-tetrazolium bromide], 5 mg/mL in phosphate buffered saline (PBS)] was added to each well. After shaking at 150 rpm for 5 min the plates were incubated at 37° C. for 2-3 h. Conversion of yellow solution to dark blue formazan by mitochondrial dehydrogenases of living cells was quantified by measuring absorbance at 560 nm.
HCMV inhibition was measured by luciferase activity of pp28-recombinant Towne and pp28 GCV-resistant Towne strains of HCMV (72 hpi) and by plaque reduction using HCMV Towne or TB40 (10 days). Viral protein expression was measured by Western blot.

HSV1 clinical isolate = assay: Plaque reduction assay, HSV1 in Vero cells; type: cell-based, Human Herpesvirus 1; conditions: Human alphaherpesvirus 1, Vero, read-out: EC50—HSV1-C1 (μM)
Excerpt: (§1) Viruses and antiviral assays: A recombinant pp28-luciferase Towne HCMV strain expressing luciferase under the control of the UL99 (pp28) late promoter was reported to provide a highly-sensitive and reproducible reporter for drug screening^20. A GCV-resistant HCMV pp28-luciferase that contains a C607Y mutation in UL97 was reported^37. The HCMV TB40 strain was obtained from ATCC (VR-1578). Clinical isolates of Human Herpesvirus 1 and 2 (HSV1, HSV2) were collected from the Johns Hopkins Microbiology laboratory without identifiers that could link them to a specific patient. Mouse CMV (MCMV) Smith strain (ATCC VR-1399) was used for infection of MEFs.
(§2) Plaque reduction assay: HFFs were seeded into 12-well plates (2×10^5 cells/well) and infected with HCMV TB40 at approximately 100 plaques/well. After 90 min, media were aspirated, and DMEM containing 0.5% carboxymethyl-cellulose (CMC), 4% fetal bovine serum (FBS), and drugs were added into duplicate wells. Following incubation at 37° C. for 10-12 days the overlay was removed, and plaques were counted after crystal violet staining. For HSV1 and HSV2 replication in Vero cells, the adsorption time was 60 min and plaques were counted after 36 h. Plaque assays in MEFs were completed after 3 days.
(§3) Inhibition of other herpesviruses: Inhibition of herpes simplex 1 and 2 (HSV1, HSV2), Epstein Barr virus (EBV) and mouse CMV (MCMV) was tested with the five compounds. Plaque reductions assays were used for HSV1, HSV2 and MCMV. Inhibition of lytic EBV replication was measured by real-time PCR in AKATA cells following IgG induction. Only MLS8554 was active against HSV1, HSV2 and MCMV (Table 2).

HSV2 clinical isolate = assay: Plaque reduction assay, HSV2 in Vero cells; type: cell-based, Human Herpesvirus 2; conditions: Human alphaherpesvirus 2, Vero, read-out: EC50—HSV2-C1 (μM)
Excerpt: as §1, §2, §3

Epstein Barr Virus (EBV) = assay: Inhibition of lytic EBV replication in Akata cells, real-time PCR of BALF5; type: cell-based; conditions: human gammaherpesvirus 4, IgG induction, real-time PCR at 48 hours, NA = Not active
Method: Inhibition of lytic Epstein Barr Virus (EBV) replication: Akata cells (0.5×10^6/well of 24-well plate) latently infected with EBV were induced with 100 μg/ml of goat antihuman IgG (Sigma). Compounds and GCV control were added to triplicate wells immediately after the addition of human IgG. Cells were collected 48 hours after lytic induction for DNA quantification. Cellular DNA was purified using Wizard SV Genomic Kit (Promega, Madison, WI). The effect of the compounds on lytic induction of EBV was analyzed by real-time PCR of the EBV DNA polymerase gene, BALF5^38.
as §3

[1] = system: Mouse CMV (MCMV) Smith strain; assay: Plaque assay, mouse CMV in MEFs; type: cell-based, mouse cytomegalovirus; conditions: Murid betaherpesvirus 1; plaque reduction, MEFs; NA = Not active
Excerpt: as §1, §2, §3

[2] = system: pp28-luciferase Towne HCMV; assay: Drug combination with GCV, pp28-luciferase Towne, Bliss model; type: cell-based, human cytomegalovirus; conditions: Human betaherpesvirus 5, read-out: EC50 of Compound 1 (GCV), pp28-luciferase Towne, MOI=1, 72 hpi; one value per combination experiment
Method: (§4) Drug combination and analysis: These experiments were performed as previously reported^40. The combination of GCV and each compound was tested using the pp28-luciferase. Briefly, 2×10^6 HFFs/plate were seeded in 96-well plates and infected with the pp28-luciferase Towne HCMV strain (MOI=1). First, a dose response curve was generated for each drug individually to determine its EC50. Then, drugs were combined at twice their EC50, diluted in DMEM with 4% FBS, followed by serial dilution and added together after infection. Luciferase activity of the combination and each drug individually was quantified at 72 hpi. The combination of letermovir and each of the new compounds was tested by the plaque assay using TB40. The same principle applied in this assay for the drug combination effect, and plaques were counted at 8 dpi. The Bliss model was used to calculate the effect of each drug combination on pp28-luciferase activity and plaque reduction. In this model, drug combination represents the product of two probabilistically independent events as described in the following equation^41.
(§5) [formula] Where D is the drug concentration, m is the slope, and EC50 is the effective concentration resulting in 50% virus inhibition. The combined effect of two inhibitors (Fu, fractional unaffected) is computed as the product of individual effects of the two inhibitors, Fu1 and Fu2. If the ratio of observed fold inhibition divided by the expected fold inhibition is greater than 1, the compounds are synergistic. If the ratio is less than 1, the combination is considered antagonistic, and if it equals to 1 the combination is additive.
(§6) Pattern of drug combination with GCV and letermovir: The effect of each compound alone or in combination with GCV or letermovir was tested in HCMV-infected HFFs. […] For letermovir and its combination with each of the five compounds the EC50 was determined based on plaque assay. […] All other combinations and Bliss coefficients were measured by pp28- luciferase.

HCMV = assay: Drug combination of GCV and 2955 by plaque assay, Bliss model; type: cell-based, human cytomegalovirus; conditions: Human betaherpesvirus 5; combination experiment with NCGC2955, plaque assay; read-out: EC50 of Compound 1 (GCV)
Method: as §4, with “In this model, drug combination represents the product of two probabilistically independent events as described in the following equation^41.” left out
as §6

[3] = system: HCMV Towne entry into HFFs; assay: HCMV entry, indirect immunofluorescence assay for pp65; type: cell-based; conditions: pretreatment 24 h: MLS8969 3 μM, Heparin 30 μM, GCV 5 μM; IFA 2 hpi
Method: HCMV entry and indirect immunofluorescence assay: MLS8969, GCV and heparin control were used to determine inhibition of HCMV entry. Compounds were diluted in serum-free media and added to HFFs seeded on chamber slides 24 h prior to infection. After infection (MOI 1 or 0.1 PFU/cell) for 2 h, cells were fixed with 100% chilled methanol, blocked for 1 h with phosphate-buffered saline (PBS), 5% serum, 0.3% Triton X-100. Cells were then incubated with mouse monoclonal anti-pp65 antibody, 1:50 (Vector Laboratories, Burlingame, CA) at 37° C. in humidified chambers for 1 h, washed three times with TBST (0.1%), incubated with rhodamine-conjugated anti-mouse IgG, 1:500 (Sigma) at 37° C. in humidified chambers for 1 h and washed with TBST (0.1%). A drop of mount oil containing DAPI (Santa Cruz Biotechnology, Santa Cruz, CA) was added to the slides before visualization with a Zeiss ZI fluorescence microscope. Images were captured at 40× magnification.

HCMV TB40 = assay: Drug combination with letermovir, plaque assay TB40, Bliss model; type: cell-based, human cytomegalovirus; conditions: Human betaherpesvirus 5, read-out: EC50 of Compound 1 (Letermovir)
Method: as §4, §5
Pattern of drug combination with GCV and letermovir: The effect of each compound alone or in combination with GCV or letermovir was tested in HCMV-infected HFFs. […] A ratio of observed fold inhibition divided by the expected fold inhibition of >1 was considered drug synergy, <1 as drug antagonism, and =1 as additive. For letermovir and its combination with each of the five compounds the EC50 was determined based on plaque assay. The combination of GCV and 2955 was also tested by plaque assay. All other combinations and Bliss coefficients were measured by pp28- luciferase.

| Molecule | CC50 (in vitro) [nM] | EC50 (HSV1 clinical isolate) [µM] | EC50 (HSV2 clinical isolate) [µM] | EC50 (Epstein Barr Virus (EBV)) [nM] | EC50 [1] [nM] | EC50 [2] [nM] | EC50 (HCMV) [nM] | inhibition of HCMV entry (pp65 nuclear staining), in words [3] | EC50 (HCMV TB40) [nM] |
| --- | --- | --- | --- | --- | --- | --- | --- | --- | --- |
| Nc1nc(O)c2ncn(COC(CO)CO)c2n1 [GCV, ganciclovir, reference compound] | > 200000 | 0.04 | 0.58 | 5200 ± 400 | 960 ± 100 | 1330 | 770 ± 80 | did not affect pp65 nuclear staining | – |
| COc1cccc(N2CCN(C3=Nc4c(F)cccc4[C@H](CC(=O)O)N3c3cc(C(F)(F)F)ccc3OC)CC2)c1 [Letermovir, letermovir, reference compound] | – | – | – | – | – | – | – | – | 1.1 |
| Heparin | – | – | – | – | – | – | – | inhibited HCMV entry | – |
